In brackets after ≈: the same amount, converted by molar mass. Where a SMILES comes first, the peptide text is derived from it. Bridges are numbered along the chain shown (N, C = ends). [ ]: non-standard residue; d: D form. Hyp = O=C(O)[C@@H]1C[C@@H](O)CN1; Pen = CC(C)(S)[C@H](N)C(=O)O; dDab = NCC[C@@H](N)C(=O)O; Nle = CCCC[C@H](N)C(=O)O; Dab = NCC[C@H](N)C(=O)O
What was measured:
[1] = tested on: human red blood cells; assay: Haemolysis; format: cell-based; settings: PBS-washed human red blood cells; 1 h at 200 mg/liter, 37°C; OD 540 nm; versus 100% lysis control 2.5% Triton X-100; biological replicates
Description: To test their hemolytic potential, compounds were incubated in the presence of phosphate-buffered saline (PBS)–washed human red blood cells. After 1-hour incubation at 200 mg/liter and 37°C, the samples were centrifuged (3220g), the supernatants were diluted in Dulbecco’s PBS, and optical density at 540 nm was determined. The hemolysis induced by the compound was calculated versus a 100% lysis control prepared with 2.5% Triton X-100 (table S4A).

[2] = tested on: K. pneumoniae NCTC 13443 (NDM-1) (parent / WT); assay: microbe, parasite or virus in culture; settings: CLSI method; parent strain
Description: (§1) MIC assays [Clinical and Laboratory Standards Institute (CLSI) methodology] and serial passage studies were performed as described by Luther et al. ([6]). […] Resistant mutants were isolated, and their MIC values were determined and sent to Microbes NG (Birmingham, United Kingdom) for whole-genome sequencing and bioinformatic analysis.

[3] = tested on: K. pneumoniae NCTC 13443 (NDM-1) LptA Q62L mutant; assay: microbe, parasite or virus in culture; settings: for MIC K. pneumoniae NCTC 13443 (NDM-1) Q62L mutant: CLSI method, clone harboring LptA Q62L
Description: as §1

[4] = tested on: Klebsiella pneumoniae NCTC 13443 LptA I36S mutant; assay: microbe, parasite or virus in culture; settings: Table S9 panel
Description: as §1

[5] = tested on: E. coli ATCC 25922 (parent / WT); assay: microbe, parasite or virus in culture; settings: for MIC E. coli ATCC 25922 Parent: CLSI method, parent strain
Description: as §1

[6] = tested on: Escherichia coli ATCC 25922 LptA E84D mutant; assay: microbe, parasite or virus in culture; settings: Table S9 panel
Description: as §1

[7] = tested on: Klebsiella pneumoniae ATCC 43816 PglJ, PhnJ, ThiH mutant; assay: microbe, parasite or virus in culture; settings: Table S9 panel; other mutation
Description: as §1

[8] = tested on: Klebsiella pneumoniae ATCC 43816 LapB mutant; assay: microbe, parasite or virus in culture; settings: Table S9 panel; other mutation
Description: as §1

[9] = tested on: E. coli ATCC 25922 LptA Q62L mutant; assay: microbe, parasite or virus in culture; settings: CLSI method; clone harboring LptA Q62L
Description: as §1

[10] = tested on: Klebsiella pneumoniae ATCC 43816 LptA I36N mutant; assay: microbe, parasite or virus in culture; settings: Table S9 panel
Description: as §1

[11] = tested on: K. pneumoniae ATCC 43816 LptA Q62L mutant; assay: microbe, parasite or virus in culture; settings: Table S9 panel
Description: as §1

[12] = tested on: Klebsiella pneumoniae NCTC 13443 LpxC, LpxD mutant; assay: microbe, parasite or virus in culture; settings: Table S9 panel; other mutation
Description: as §1

[13] = tested on: K. pneumoniae ATCC 43816 (parent / WT); assay: microbe, parasite or virus in culture; settings: ATCC 43816
Description: as §1

[14] = tested on: Klebsiella pneumoniae ATCC 43816 LptA I36S mutant; assay: microbe, parasite or virus in culture; settings: Table S9 panel
Description: as §1

[15] = tested on: Klebsiella pneumoniae NCTC 13443 YejM mutant; assay: microbe, parasite or virus in culture; settings: Table S9 panel; other mutation
Description: as §1

[16] = tested on: Klebsiella pneumoniae ATCC 43816 LptA L116Q mutant; assay: microbe, parasite or virus in culture; settings: Table S9 panel
Description: as §1

[17] = tested on: Escherichia coli ATCC 25922 KdsD mutant; assay: microbe, parasite or virus in culture; settings: Table S9 panel; other mutation
Description: as §1

[18] = target: T1, LptAmQ62L (Escherichia coli, UniProt P0ADV1, Q62L); assay: biochemical; format: binding, E. coli
T1 construct: His6-GB1 (N, cleaved yes); made in house; host or cells: E. coli BL21 (DE3)
T1 sequence (P0ADV1 28-159 Q62L): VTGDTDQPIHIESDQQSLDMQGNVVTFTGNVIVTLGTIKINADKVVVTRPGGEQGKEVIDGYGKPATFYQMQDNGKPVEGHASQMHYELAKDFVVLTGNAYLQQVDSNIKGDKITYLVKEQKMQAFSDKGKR
Description: (§2) Protein stocks were purified and concentrated in buffer 1 [50 mM Na-Pi (pH 7) and 150 mM NaCl] and, if necessary, diluted to desired concentrations using buffer 2 [50 mM Na-Pi (pH 7), 150 mM NaCl, and 0.05% Tween 20]. Peptide stocks and fluorescently labeled peptide stocks were made in buffer 2. Every serial dilution consisted of 24 wells, the first well with the highest concentrate and the last well (well 24) with the lowest. First, 50 μl of buffer 2 was added to the wells 2 to 24 of each serial dilution. Then, 100 μl of concentrated unlabeled peptide/protein in their respective buffers was added to the first well. Fifty microliters were taken from the first well and added to the second well for a 1:1 serial dilution and continued for the 24 wells. […] Plates were covered with adhesive seals and left to incubate overnight at 4°C before FP measurements the next day. Anisotropy was measured using the Tecan Safire2 plate reader using a 10-nm bandwidth and setting the excitation and emission wavelengths to 635 and 670 nm, respectively. The G-factor (G) was also determined empirically as 1.094 for the instrument and included in all the anisotropy calculations.
(§3) For the indirect binding assays, r was calculated in the same manner as the direct binding assays. […] The control was subtracted from r to yield r′. Data were fit to a sigmoidal interpolation model on GraphPad Prism 9, and an IC50 was generated for each unlabeled peptide or protein measured.

[19] = target: T2, LptAm (Escherichia coli, UniProt P0ADV1); assay: biochemical; format: binding, E. coli
T2 construct: His6-GB1 (N, cleaved yes); made in house; host or cells: E. coli BL21 (DE3)
T2 sequence (P0ADV1 28-159): as the sequence (P0ADV1 28-159 Q62L) above, with L35Q counted along it
Description: as §2, §3

[20] = Plasma protein binding; format: in vitro ADME, human; settings: human, plasma, pH 7.5
Description: (§4) After ultrafiltration, protein binding was determined by subtracting the percentage of compound in ultrafiltrate from the total amount of compound in spiked plasma (table S4A).

[21] = in vitro; format: cell-based; settings: human
Description: The cytotoxicity of compounds was determined by determining the number of viable cells using the Sigma Cell Counting Kit-8 (WST-8). HeLa cells were incubated at 37°C and 5% CO2 for 24 hours, after which the medium was replaced with fresh medium containing dilutions of compounds. […]

[22] = Plasma protein binding; format: in vitro ADME, mouse; settings: mouse, plasma, pH 7.5
Description: as §4

Compound | Haemolysis % at 0.2 g/L [1] [%] | MIC K. pneumoniae NCTC 13443 (NDM-1) Parent [2] [micrograms per milliliter] | MIC K. pneumoniae NCTC 13443 (NDM-1) Q62L mutant [3] [micrograms per milliliter] | MIC E. coli ATCC 25922 Parent [5] [micrograms per milliliter] | MIC E. coli ATCC 25922 Q62L mutant [9] [micrograms per milliliter] | MIC K. pneumoniae ATCC 43816 Parent [13] [micrograms per milliliter] | IC50 [18] [µM] | Ki [18] [µM] | IC50 [19] [µM] | Ki [19] [µM] | fraction unbound at 30 min, 10 mg/liter [20] | IC50 at 48 h [21] [µM] | fraction unbound at 30 min, 10 mg/liter [22] | further results
CC[C@H](C)[C@H](NC(=O)[C@@H](NC(=O)[C@@H]1C[C@@H](O)CN1C(=O)[C@@H](N)C(C)C)[C@@H](C)CC)C(=O)N[C@@H](Cc1ccc(O)cc1)C(=O)N[C@@H]1C(=O)N[C@@H](CC(N)=O)C(=O)N[C@@H](CCCNC(=N)N)C(=O)N[C@@H](CCN)C(=O)N[C@@H]([C@@H](C)O)C(=O)N[C@H](CCN)C(=O)N[C@@H](CCCCN)C(=O)N[C@H](C(=O)N[C@@H](CCN)C(=O)N[C@@H](CCN)C(=O)N[C@@H](Cc2ccc(O)cc2)C(=O)O)CSSC1(C)C [Compound 5] (H-V[Hyp]IIY[Pen]NR[Dab]T[dDab]KC[Dab][Dab]Y-OH; disulfide 6-13) | 0 | 1 | 4 | 0.063 | 0.25 | 0.25 | 0.0139 ± 0.0023 | 0.0094 ± 0.0015 | 0.0186 ± 0.0011 | 0.0031 ± 0.0002 | 0.18 | 1270 | 0.13 | MIC Klebsiella pneumoniae NCTC 13443 LptA Q62L (5x) ([3]; Table S9 panel): 8 µg/mL (≈ 4.18 µM); MIC Klebsiella pneumoniae NCTC 13443 LptA I36S (2x) [4]: 4 µg/mL (≈ 2.09 µM); MIC Escherichia coli ATCC 25922 WT ([5]; Table S9 panel, WT): 0.125 µg/mL (≈ 0.0653 µM); MIC Escherichia coli ATCC 25922 LptA E84D (1x) [6]: 1 µg/mL (≈ 0.522 µM); MIC Klebsiella pneumoniae ATCC 43816 PglJ, PhnJ, ThiH (1x) [7]: 0.5 µg/mL (≈ 0.261 µM); MIC Klebsiella pneumoniae ATCC 43816 LapB (1x) [8]: 0.5 µg/mL (≈ 0.261 µM); MIC Klebsiella pneumoniae ATCC 43816 LptA I36N (1x) [10]: 1 µg/mL (≈ 0.522 µM); MIC Klebsiella pneumoniae ATCC 43816 LptA Q62L (4x) [11]: 4 µg/mL (≈ 2.09 µM); MIC Klebsiella pneumoniae NCTC 13443 LpxC, LpxD (1x) [12]: 0.5 µg/mL (≈ 0.261 µM); MIC Klebsiella pneumoniae ATCC 43816 LptA I36S (1x) [14]: 1 µg/mL (≈ 0.522 µM); MIC Klebsiella pneumoniae NCTC 13443 YejM (1x) [15]: 2 µg/mL (≈ 1.04 µM); MIC Klebsiella pneumoniae ATCC 43816 LptA L116Q (1x) [16]: 1 µg/mL (≈ 0.522 µM); MIC Escherichia coli ATCC 25922 KdsD (2x) [17]: 0.5 µg/mL (≈ 0.261 µM)
CCCC[C@H](NC(=O)[C@H](CCCNC(=N)N)NC(=O)[C@H](CCN)NC(=O)[C@@H]1CSSC[C@H](NC(=O)[C@H](Cc2ccc(O)cc2)NC(=O)[C@@H](NC(=O)[C@@H](NC(=O)[C@@H]2CCCN2C(=O)[C@@H](NC(=O)[C@@H]2CCCN2C(=O)[C@H](CCCCN)NC(=O)[C@@H](N)CCCCN)C(C)C)[C@@H](C)CC)[C@@H](C)CC)C(=O)N[C@@H](CC(N)=O)C(=O)N[C@@H](CCCNC(=N)N)C(=O)N[C@@H](CCCNC(=N)N)C(=O)N[C@@H]([C@@H](C)O)C(=O)NCC(=O)N[C@@H](CCCCN)C(=O)N1)C(=O)O [Compound 1] (H-KKPVPIIYCNRRTGKC[Dab]R[Nle]-OH; disulfide 9-16) | 0 | 0.5 | >8 | 0.063 | >8 | 0.25 | 0.0304 ± 0.0088 | 0.0205 ± 0.006 | 0.0066 ± 0.0005 | 0.0011 ± 0.0001 | 0.24 | 158 | 0.14 | –

Reference: article PMC10208570, “Peptidomimetic antibiotics disrupt the lipopolysaccharide transport bridge of drug-resistant Enterobacteriaceae” (Science Advances, 2023)
